Reference: the supplement of paper PMC10307832

Legend:
Experiment in all cases: relative viability (nuclei count vs DMSO), 5 days (fraction); higher = more cells survive
[1] = compound: Cc1ccc(NC(=O)c2ccc(CN3CCN(C)CC3)cc2)cc1Nc1nc(-c2cccnc2)cs1 [Masitinib] + COc1cccc2cc(-c3nc([C@H]4CC[C@H](C(=O)O)CC4)n4ncnc(N)c34)[nH]c12 [OSI-027] (partner 0.5 µM)
Outline: (§1)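 Values are medians from duplicate plates. Each reflects relative viability, defined as the nuclei count of treated wells over that of vehicle wells. Lung cancer cell lines in 1536-well plates were pin-tool dosed one day after seeding with one drug alone or with a fixed anchor-drug dose plus five library-drug doses (not always all listed) in √10 steps, then fixed, stained and imaged at 4× after 5 days.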

[2] = compound: CC1=CC(=CC=C1)NC2=NC(=CS2)C3=CC=NC=C3 + CCNC(=O)c1noc(-c2cc(C(C)C)c(O)cc2O)c1-c1ccc(CN2CCOCC2)cc1 [Luminespib] (partner 0.01 µM)
Outline: as §1

[3] = compound: Cc1ccc(NC(=O)c2ccc(CN3CCN(C)CC3)cc2)cc1Nc1nc(-c2cccnc2)cs1 [Masitinib] + NC(=O)Nc1cc(-c2cccc(F)c2)sc1C(=O)N[C@H]1CCCNC1 [AZD7762] (partner 0.2 µM)
Outline: as §1

[4] = compound: CC1=CC(=CC=C1)NC2=NC(=CS2)C3=CC=NC=C3 + CS(=O)(=O)N1CCN(Cc2cc3nc(-c4cccc5[nH]ncc45)nc(N4CCOCC4)c3s2)CC1 [Pictilisib] (partner 1 µM)
Outline: as §1

Cell Line	relative viability ([1]; first compound 0.01 µM)	relative viability ([1]; first compound 0.03162 µM)	relative viability ([1]; first compound 0.1 µM)	relative viability ([1]; first compound 0.3162 µM)	relative viability ([1]; first compound 1 µM)	relative viability ([2]; first compound 0.08 µM)	relative viability ([2]; first compound 0.253 µM)	relative viability ([2]; first compound 0.8 µM)	relative viability ([2]; first compound 2.53 µM)	relative viability ([2]; first compound 8 µM)	relative viability ([3]; first compound 0.01 µM)	relative viability ([3]; first compound 0.03162 µM)	relative viability ([3]; first compound 0.1 µM)	relative viability ([3]; first compound 1 µM)	relative viability ([4]; first compound 0.08 µM)	relative viability ([4]; first compound 0.253 µM)	relative viability ([4]; first compound 0.8 µM)	relative viability ([4]; first compound 2.53 µM)	relative viability ([4]; first compound 8 µM)	relative viability ([3]; first compound 0.3162 µM)
NCI-H1623	0.373	0.507	0.447	0.318	0.367	0.496	0.453	0.369	0.371	0.391										
NCI-H1648	0.272		0.236	0.268	0.254						0.567	0.678	0.711	0.679						
NCI-H1650	0.58	0.478	0.719	0.499	0.543	0.214	0.181	0.222	0.194	0.186					0.536	0.517	0.621	0.419	0.208	
NCI-H1703											0.113	0.158	0.102	0.106	0.229	0.243	0.238	0.282	0.262	0.121
NCI-H2009	0.591	0.654	0.646	0.616	0.606	1.01	0.953	0.905	0.988	1.05					0.724	0.837	0.692	0.856	0.957	
NCI-H2023	0.387	0.412	0.592	0.271	0.27	0.716	0.706	0.889	0.659	0.427					0.161	0.177	0.215	0.175	0.18	
NCI-H2228	0.633	0.661	0.638	0.807	0.528	0.107	0.159	0.194	0.164	0.17					0.413	0.431	0.281	0.453	0.359	
NCI-H2342	0.637	0.58	0.696	0.592	0.593	0.746	0.717	0.771	0.67	0.676	0.51	0.402	0.427	0.456						0.508
SK-LU-1	0.361	0.334	0.346	0.329	0.368	0.205	0.223		0.183	0.227					0.527	0.575		0.586	0.626	
SK-MES-1	0.615	0.668	0.684	0.52	0.651	0.614	0.515	0.556	0.749	0.508					0.275	0.276	0.341	0.358	0.346	
SW 900	0.654	0.443	0.627	0.527	0.482	0.186	0.178	0.172	0.188	0.178	0.664	0.548	0.568	0.576						0.574
SW 1573	0.646	0.627	0.798	0.66	0.559	0.296	0.19	0.16	0.248	0.253					0.473	0.454	0.521	0.57	0.488	
